Measurements: patent publication US5972901A, “Serpin enzyme complex receptor--mediated gene transfer” (Case Western Reserve University, priority 1996, dated 1999)

Assays:
SEC receptor [1] = assay: Binding of fluorescein labeled peptide to hepatoma cells (fluorescent cells); assay type: cell-based, human
Protocol: HuH7, HepG2 (high) and HepG2 (low) cells were plated in six well plates and transfected as described above. Fluorescein labeling was carried out with fluorescein isothiocyanate, as described previously [Mann and Fish (1972) Methods of Enzymology 26:28-42]. Briefly, the C1315 peptide (145 μg) was incubated with 1 mg of fluorescein isothiocyanate for 1 hr at room temperature. Following incubation, 10 mg/ml glycine was added to destroy excess reagent, the pH was adjusted to 6.0 by the addition of 1N HCl and the labeled peptide was then purified on a Sephadex G10 column (Bio-Rad).
Two days following transfection, cells were washed with Ca^2+ /Mg^2+ PBS, incubated with 100 nM fluorescein labeled C1315 peptide and diluted in binding buffer (DMEM containing 50 mM Hepes, 0.1 mg/ml cytochrome c, 0.01% Tween 80, 2 mg/ml bovine serum albumin) at 4° C. Individual cells were imaged on a Zeiss axiovert 35 microscope at an excitation wavelength of 493.5 nm and a measurement wavelength of 530 nm. Digital images were captured by a cooled CCD camera model CH250 for 25 seconds (Photometrics, Ltd., Tucson, Ariz.) and quantified by a Nu 2000 camera controller board (Photometrics) with a Macintosh Quadra 900 configuration. Data was processed with Oncor image software (Oncor Imaging, Rockville, Md.).
Both HuH7 and HepG2 cell lines were transfected with the pCMV lac Z II plasmid coding for the β-galactosidase protein as a complex with the C1315 peptide carrier or using Lipofectin®, as described above; three days after transfection, the cells were harvested and β-galactosidaseactivity was determined. Cells staining blue represent cells expressing β-galactosidase; fluorescent cells represent cells which bound the fluoresceinated C105Y peptide. Cells which were counted as blue or fluorescent were intensely stained. The average % values represent the number of cells which were blue or fluorescent per 100 randomly selected cells. The results represent 6 independent experiments conducted. […]

hepatoma cells = assay: Cell death / viability during transfection of hepatoma cells; details: 10 fold molar excess
Protocol: After addition of the complex and/or Lipofectin®, all cells were incubated at 37° C. for six hours. Cells were then rinsed with Ca^2+ /Mg^2+ PBS and fresh growth media added and incubated at 37° C. (with a change of media every 2 days) until the appropriate functional assay was performed. Competition experiments were conducted by transfecting HepG2 (high) cells with 1.11 pmol C1 315 carrier condensed DNA in the presence and absence of a 10 fold excess free C1315 peptide. All transfections were done in duplicate.

SEC receptor [2] = assay: 125I-C105Y cell surface SEC receptor binding, Scatchard analysis; design: species or system human; details: for Kd: 4° C.
Protocol: Peptide C105Y was radio-iodinated by a modification of the chloramine T method [Hunter and Greenwood (1962) Nature 194:49] as follows. Briefly, approximately 50 μg of the C105Y peptide in 20 μl PBS was mixed with 20 μl chloramine T (120 mg/10 ml) and 1 mCi ^125 I (DuPont-New England Nuclear, Boston, Mass.). The reaction mixture was incubated for 30 seconds at room temperature and then 50 μl of sodium metabisulfite (36 mg/10 ml) was added. The labeled C105Y peptide was purified on a Sephadex G10 column (Bio-Rad) which had been blocked by application of 3 mg/ml BSA in PBS prior to the addition of the iodinated peptide. The specific radioactivity of ^125 I peptide C105Y ranged between 3,500 and 11,700 dpm/ng.
HuH7 cells and two populations of HepG2 cells were studied. Cells were plated in 24 well tissue culture plates, allowed to become confluent, then thoroughly washed with phosphate-buffered saline containing 1 mM CaCl2 and 2.5 mM MgCl2 (Ca^2+ /Mg^2+ PBS) and incubated at 4° C. for 2 h with ^125 I-labeled ligand (e.g., C105Y) at concentrations of 12.5 to 400 nM in the absence or presence of 200 fold excess unlabeled ligand and diluted in binding medium (DMEM containing 50 mM HEPES, 0.1 mg/ml cytochrome c, 0.01% Tween 80, 2 mg/ml bovine serum albumin). The cells were then rinsed in Ca^2+ Mg^2+ PBS, homogenized in 1 N NaOH, and cell-associated radioactivity determined. Non-specific binding was determined by incubating cells with a 200 fold molar excess of cold ligand. Specific binding was defined as the difference between total and non-specific binding. Binding parameters were determined by Scatchard analysis. Binding assays were performed on all three cell lines [HuH7, HepG2 (high), and HepG2 (low)] simultaneously with the same batch of iodinated C105Y peptide so that the proper comparisons could be made.
In FIG. 22, the specific binding (expressed as cpm/one million cells) is plotted against the concentration of iodinated C105Y ppeptide (nM). Traces are shown for the specific binding of ^125 I-C105Y to HuH7 cells (.smallcircle.), HepG2 (high) cells (.quadrature.) and HepG2 (low) cells (.diamond.). Specific binding was determined by subtracting […].

Protocol for total serum cholesterol: Six adult male Watanabe rabbits (2.8-3.2 Kg of bodyweight) were used in these studies. […] In order to introduce the DNA complex into the animal, we perform a single injection of 3-10 ml of the DNA-complex solution (~400-900 mM NaCl) into the marginal ear vein of the rabbit. Approximately 1.5 ml of blood was drawn from the ear artery at 4 p.m. The determination of the concentration of serum cholesterol was performed in the Clinical Laboratory of University Hospitals of Cleveland from 300 μl of serum. At different time points following the introduction of the DNA complex, a rabbit was subjected to a liver biopsy.

CC[C@H](C)C(=O)O[C@H]1C[C@@H](C)C=C2C=C[C@H](C)[C@H](CC[C@@H]3C[C@@H](O)CC(=O)O3)[C@H]21 [lovastatin]
cholesterol concentration relative to that prior to the first gene transfer (total serum cholesterol; rabbit #774, gene transfer followed by 10 mg per day for 10 weeks): 40% | further reduction in the levels of cholesterol (total serum cholesterol; rabbit #774 after gene transfer, 10 mg per day orally for 10 weeks): 20%

CFLEAIPMSIPPEVKFNKPFVFLIIHRD [C1315]
Average % Fluorescent Cells (SEC receptor [1]; HepG2(high)): 20.4 ± 11.2% | Average % Fluorescent Cells (SEC receptor [1]; HepG2(low)): 1.8 ± 1.4% | Average % Fluorescent Cells (SEC receptor [1]; HuH7): 14.3 ± 4.0% | effect of excess free peptide on cell viability (hepatoma cells): no effect on cell viability

CSIPPEVKFNKPFVYLI [C105Y]
binding by HuH7 cells relative to HepG2 (high), more (SEC receptor [2]): 1.5 fold | specific binding by HepG2 (low) cells relative to HepG2 (high) cells, less (SEC receptor [2]): 7.5 fold | specific binding by HepG2 (low) cells relative to HuH7 cells, less (SEC receptor [2]): 10 fold | Kd (SEC receptor [2]; HepG2 (high) cells, Scatchard analysis): 50 nM | Kd (SEC receptor [2]; HepG2 (low) cells): ~22.5 nM | Kd (SEC receptor [2]; HuH7 cells): ~70 nM
